Experimental data taken from patent US12110286B2, “Benzimidazolone derived inhibitors of BCL6” (Cancer Research Technology Limited, priority 2017, dated 2024).

Molecular target: Trx-6×His-BCL6 (human BCL6 BTB domain covering amino-acid sequence 5-129) (Homo sapiens (Human), UniProt P41182)
Assay: HTRF in vitro assay (BCL6 / BCOR-AF633 peptide)
Type: binding
Conditions: for activity in the HTRF assay: result in words
Method: The % inhibition at each concentration was calculated by normalising FRET ratio to the appropriate high (DMSO with all reagents) and low (DMSO without BCL6) controls.

[1] = further generated data, 1 nM Trx-6×His-BCL6, 300 nM BCOR-AF633 peptide, 0.5 nM anti-6×His-Terbium cryptate
[2] = initially generated data, 10 nM Trx-6×His-BCL6, 300 nM BCOR-AF633 peptide, 1 nM anti-6×His-Terbium cryptate

SMILES	activity in the HTRF assay	HTRF pIC50 [1]	HTRF pIC50 [2]
Cn1c(=O)n(CC2CCOC2(C)C)c2cc(Nc3ccnc(Cl)c3C#N)ccc21 (centres unmarked) [2-chloro-4-((3-((2,2-dimethyltetrahydrofuran-3-yl)methyl)-1-methyl-2-oxo-2,3-dihydro-1H-benzo[d]imidazol-5-yl)amino)nicotinonitrile]	did not exhibit the desired activity	–	–
CCNC(C)CCn1c(=O)n(C)c2ccc(Nc3ccnc(Cl)c3C#N)cc21.Cl (centres unmarked) [Example 26a, 2-chloro-4-((3-(3-(ethylamino)butyl)-1-methyl-2-oxo-2,3-dihydro-1H-benzo[d]imidazol-5-yl)amino)nicotinonitrile hydrochloride]	–	5.41	–
COC(=O)C(C)CCn1c(=O)n(C)c2ccc(Nc3nc(C)ncc3Cl)cc21 (centres unmarked) [Example 3c, Methyl 4-[6-[(5-chloro-2-methyl-pyrimidin-4-yl)amino]-3-methyl-2-oxo-benzimidazol-1-yl]-2-methyl-butanoate]	–	5.37	5.37
Cc1ccn(-c2ncc(Cl)c(Nc3ccc4c(c3)n(CCC(C)(C)O)c(=O)n4C)n2)n1 [Example 16a, 5-((5-chloro-2-(3-methyl-1H-pyrazol-1-yl)pyrimidin-4-yl)amino)-3-(3-hydroxy-3-methylbutyl)-1-methyl-1,3-dihydro-2H-benzo[d]imidazol-2-one]	–	6.38	–
Cn1c(=O)n(C[C@@H]2CCCN2CCO)c2cc(Nc3ccnc(Cl)c3C#N)ccc21 [Example 25g, (S)-2-chloro-4-((3-((1-(2-hydroxyethyl)pyrrolidin-2-yl)methyl)-1-methyl-2-oxo-2,3-dihydro-1H-benzo[d]imidazol-5-yl)amino)nicotinonitrile: formic acid (1:1)]	–	5.34	–
COCC(C)(O)CCn1c(=O)n(C)c2ccc(Nc3nc(-n4nc(C)cc4C)ncc3Cl)cc21 (centres unmarked) [Example 15j]	–	5.76	–
C[C@@H]1CN(c2ncc(Cl)c(Nc3ccc4c(c3)n(CCC(C)(C)O)c(=O)n4C)n2)C[C@H](C)O1 [Example 20j]	–	6.80	–
COC(=O)C(C)CCn1c(=O)n(C)c2ccc(Nc3cc(C(=O)N(C)C)nc(Cl)c3C#N)cc21 (centres unmarked) [Example 7c, Methyl 4-[6-[[2-chloro-3-cyano-6-(dimethylcarbamoyl)-4-pyridyl]amino]-3-methyl-2-oxo-benzimidazol-1-yl]-2-methyl-butanoate]	–	–	5.57
C[C@@H]1C[C@H](C)CN(c2ncc(Cl)c(Nc3cc4c(cc3F)n(C)c(=O)n4CCC(C)(C)O)n2)C1.O=CO [Example 20q]	–	5.87	–
Cn1c(=O)n(CC2COCCN2CC(F)(F)F)c2cc(Nc3ccnc(Cl)c3C#N)ccc21 (centres unmarked) [Example 25a, 2-chloro-4-((1-methyl-2-oxo-3-((4-(2,2,2-trifluoroethyl)morpholin-3-yl)methyl)-2,3-dihydro-1H-benzo[d]imidazol-5-yl)amino)nicotinonitrile]	–	5.58	–
Cc1cc(C)n(-c2cc(Nc3ccc4c(c3)n(CCC(C)(C)O)c(=O)n4C)c(C#N)cn2)n1 [Example 15o]	–	5.88	–
CCOC(=O)c1cc(Nc2ccc3c(c2)n(CCC(C)(C)O)c(=O)n3C)n2nccc2n1 [Example 1h, Ethyl 7-[[3-(3-hydroxy-3-methyl-butyl)-1-methyl-2-oxo-benzimidazol-5-yl]amino]pyrazolo[1,5-a]pyrimidine-5-carboxylate]	–	5.94	5.79
C[C@@H](O)CCn1c(=O)n(C)c2ccc(Nc3cc(C(=O)O)nc(Cl)c3C#N)cc21 [Example 1e, 6-chloro-5-cyano-4-[[3-[(3R)-3-hydroxybutyl]-1-methyl-2-oxo-benzimidazol-5-yl]amino]pyridine-2-carboxylic acid]	–	–	6.01
Cn1c(=O)n(CCC(C)(C)O)c2cc(Nc3ncnc(Cl)c3C#N)c(F)cc21 [Example 22d]	–	5.45	–
Cn1c(=O)n(CC2CC(C)(C)C2)c2cc(Nc3ccnc(Cl)c3C#N)ccc21 [2-chloro-4-((3-((3,3-dimethylcyclobutyl)methyl)-1-methyl-2-oxo-2,3-dihydro-1H-benzo[d]imidazol-5-yl)amino)nicotinonitrile]	did not exhibit the desired activity	–	–
C[C@@H]1CN(c2cc(Nc3ccc4c(c3)n(CCC(C)(C)O)c(=O)n4C)c(Cl)cn2)C[C@H](C)O1 [Example 36b, 5-((5-chloro-2-((2R,6S)-2,6-dimethylmorpholino)pyridin-4-yl)amino)-3-(3-hydroxy-3-methylbutyl)-1-methyl-1,3-dihydro-2H-benzo[d]imidazol-2-one]	–	5.99	–
Cn1c(=O)n(CCC(C)(C)O)c2cc(Nc3nc(N4C[C@@H](F)[C@@H](F)C4)ncc3Cl)ccc21 [Example 35h, 5-((5-chloro-2-((3R,4S)-3,4-difluoropyrrolidin-1-yl)pyrimidin-4-yl)amino)-3-(3-hydroxy-3-methylbutyl)-1-methyl-1,3-dihydro-2H-benzo[d]imidazol-2-one]	–	6.36	–
CC[C@]1(O)CCC[C@H]1Cn1c(=O)n(C)c2ccc(Nc3ccnc(Cl)c3C#N)cc21 [Example 22m]	–	5.52	–

SMILES	activity in the HTRF assay	HTRF pIC50 [1]	HTRF pIC50 [2]
Cn1c(=O)n(CC2CCNCC2)c2cc(Nc3ccnc(Cl)c3C#N)ccc21 [2-chloro-4-((1-methyl-2-oxo-3-(piperidin-4-ylmethyl)-2,3-dihydro-1H-benzo[d]imidazol-5-yl)amino)nicotinonitrile]	did not exhibit the desired activity	–	–
CNC(=O)c1cc(Nc2ccc3c(c2)n(CCC(C)(C)O)c(=O)n3CC2CCOCC2)c(C#N)c(Cl)n1 [Example 1g, 6-chloro-5-cyano-4-[[3-(3-hydroxy-3-methyl-butyl)-2-oxo-1-(tetrahydropyran-4-ylmethyl)benzimidazol-5-yl]amino]-N-methyl-pyridine-2-carboxamide]	–	5.95	5.82
Cn1c(=O)n(CC2CCCN(C(=O)OC(C)(C)C)C2)c2cc(Nc3ccnc(Cl)c3C#N)ccc21 (centres unmarked) [tert-butyl 3-((6-((2-chloro-3-cyanopyridin-4-yl)amino)-3-methyl-2-oxo-2,3-dihydro-1H-benzo[d]imidazol-1-yl)methyl)piperidine-1-carboxylate]	did not exhibit the desired activity	–	–
CCC(Cn1c(=O)n(C)c2ccc(Nc3ccnc(Cl)c3C#N)cc21)N(C)C (centres unmarked) [Example 25b, 2-chloro-4-((3-(2-(dimethylamino)butyl)-1-methyl-2-oxo-2,3-dihydro-1H-benzo[d]imidazol-5-yl)amino)nicotinonitrile: formic acid (1:1)]	–	5.34	–
Cn1c(=O)n(C)c2cc(Nc3ccncc3C(F)(F)F)ccc21 [1,3-dimethyl-5-((3-(trifluoromethyl)pyridin-4-yl)amino)-1,3-dihydro-2H-benzo[d]imidazol-2-one]	did not exhibit the desired activity	–	–
Cn1c(=O)n(CC2CCCCN2CC(F)(F)F)c2cc(Nc3ccnc(Cl)c3C#N)ccc21 (centres unmarked) [Example 25e, 2-chloro-4-((1-methyl-2-oxo-3-((1-(2,2,2-trifluoroethyl)piperidin-2-yl)methyl)-2,3-dihydro-1H-benzo[d]imidazol-5-yl)amino)nicotinonitrile]	–	5.37	–
Cn1c(=O)n(C[C@@H]2CCCN2CC(F)F)c2cc(Nc3ccnc(Cl)c3C#N)ccc21 [Example 25i, (S)-2-chloro-4-((3-((1-(2,2-difluoroethyl)pyrrolidin-2-yl)methyl)-1-methyl-2-oxo-2,3-dihydro-1H-benzo[d]imidazol-5-yl)amino)nicotinonitrile]	–	5.71	–
Cn1c(=O)n(CCC(C)(C)O)c2cc(Nc3cc(Cl)nc4ccnn34)ccc21 [Example 22h]	–	5.47	–
Cn1c(=O)n(CCC(C)(C)O)c2cc(Nc3nc(-n4cc(C(F)(F)F)cn4)ncc3Cl)ccc21 [Example 20s]	–	6.26	–
CNC(=O)c1cc(Nc2ccc3c(c2)n(CC[C@H](C)n2cccn2)c(=O)n3C)c(C#N)c(Cl)n1 [Example 1d, 6-chloro-5-cyano-N-methyl-4-[[1-methyl-2-oxo-3-[(3S)-3-pyrazol-1-ylbutyl]benzimidazol-5-yl]amino]pyridine-2-carboxamide]	–	–	6.04
Cn1c(=O)n(CCC(C)(C)O)c2cc(Nc3ccnc(Cl)c3C#N)ccc21 [Example 1i, 2-chloro-4-[[3-(3-hydroxy-3-methyl-butyl)-1-methyl-2-oxo-benzimidazol-5-yl]amino]pyridine-3-carbonitrile]	–	6.08	5.77
Cn1c(=O)n(CCC(C)(C)O)c2cc(Nc3ccncc3Cl)ccc21 [Example 29e, 5-((3-chloropyridin-4-yl)amino)-3-(3-hydroxy-3-methylbutyl)-1-methyl-1,3-dihydro-2H-benzo[d]imidazol-2-one]	–	5.93	–
Cc1cc(C)n(-c2nc(C)c(Cl)c(Nc3ccc4c(c3)n(CCC(C)(C)O)c(=O)n4C)n2)n1 [Example 15p]	–	5.82	–
Cn1c(=O)n(CCC(C)(C)O)c2cc(Nc3nc(-n4ccc(C(F)(F)F)n4)ncc3Cl)c(F)cc21 [Example 20r]	–	6.53	–
Cn1c(=O)n(CCC(C)(C)O)c2cc(Nc3nc(N4CCC[C@H]4CO)ncc3Cl)ccc21 [Example 31a, (S)-5-((5-chloro-2-(2-(hydroxymethyl)pyrrolidin-1-yl)pyrimidin-4-yl)amino)-3-(3-hydroxy-3-methylbutyl)-1-methyl-1,3-dihydro-2H-benzo[d]imidazol-2-one]	–	6.46	–
C[C@@H](O)CCn1c(=O)n(C)c2ccc(Nc3ccnc(Cl)c3Cl)cc21 [Example 1q, 5-[(2,3-dichloro-4-pyridyl)amino]-3-[(3R)-3-hydroxybutyl]-1-methyl-benzimidazol-2-one]	–	5.45	5.49
COC(=O)C(C)CCn1c(=O)n(C)c2ccc(Nc3cc(C(=O)O)nc(Cl)c3C#N)cc21 (centres unmarked) [Example 3a, 6-Chloro-5-cyano-4-[[3-(4-methoxy-3-methyl-4-oxo-butyl)-1-methyl-2-oxo-benzimidazol-5-yl]amino]pyridine-2-carboxylic acid]	–	5.93	6.21
